# Measurements: US20260028404A1 (UNIVERSITY OF KANSAS, priority 2022, published 2026)
# Legend:
# [1] = Window of opportunity trial: adverse events of intratumoral/peritumoral Copaxone injections; assay type: in vivo, human
# Method: (§1) Subjects whose tumors were accessible for intratumoral, percutaneous injection and were planned for surgery as the primary treatment were eligible if no other treatment between initial biopsy and surgery was anticipated. During the treatment period, eligible subjects received Copaxone® at 40 mg intratumorally for up to 3 times a week and at least 48 hours apart until 24 hours before the planned surgery. This dosing regimen was consistent with the label for subcutaneous injections of Copaxone®.
# This study is an open label single arm window of opportunity trial in patients with resectable solid malignancies whose planned primary treatment is surgical resection conducted at the University of Kansas Cancer Center (KUCC). The patients had to be at least 18 years old with previously untreated histologically confirmed malignant tumor that is percutaneously accessible for intratumoral injection. The injectable tumor must be at least 5 mm in diameter using standard measuring tape. Pretreatment archival tumor tissue consisting of formalin-fixed, paraffin-embedded (FFPE) tumor tissue obtained from standard of care diagnostic biopsy must be available in order to be eligible for the trial. Patients whose lesions are in close proximity to vascular structures (i.e., carotid artery or tumors close to other vital organs such as the trachea), with mucosal lesions only, with known hypersensitivity to Copaxone or with a known condition that leads to immunosuppression such as AIDS or concurrent use of immunosuppressive therapy were considered ineligible. Approval for the study was granted through the institutional review board at University of Kansas Cancer Center and all patients provided written informed consent before study entry. This trial was performed according to the Declaration of Helsinki principles. The KUCC Data and Safety Monitoring Committee (DSMC) performed the oversight of the monitoring of participant safety, conduct and scientific progress of research protocols, and the validity and integrity of the data for clinical trials.
# Study treatment: Treatment was administered on an outpatient basis prior to surgery. […] Doses were administered at least 48 hours apart and the last dose given within 96 hours of surgery. This window of 96 hours was chosen because we hypothesized that any immune changes due to Copaxone may remain apparent within 96 hours. No dose adjustments, modifications or delays due to Copaxone® related toxicity were allowed.
# Efforts were made to administer the full dose into the lesion, unless it was deemed not practicable by the treating investigator. Tumors were injected using a 28-gauge or smaller needle. Glatiramer acetate (Copaxone®) was thoroughly distributed within the injected tumor using a “fanning method” (to distribute the injection across several angles throughout the lesion to maximize the spread of glatiramer acetate (Copaxone®) in the tumor). The use of local anesthetic prior to Copaxone injection was allowed.
# Safety Assessments: Adverse events were assessed at baseline, during Copaxone® dose administration and at time of surgery or end of treatment visit. The revised NCI Common Terminology Criteria for Adverse Events (CTCAE) version 5.0 was utilized for AE reporting and toxicity assessment. Complete blood count, chemistry and INR were done at baseline.
# as §1, with “A single-arm, open-label, preoperative window of opportunity trial was conducted to evaluate the feasibility, safety, and local effects of intratumoral/peritumoral injections of Copaxone®. Subjects” for “Subjects”, “This dosing regimen was consistent with the label for subcutaneous injections of Copaxone®.” left out
# [2] = system: differentially expressed genes; assay: CT26 tumor RNA sequencing; assay type: in vivo, BALB/c mice; conditions: intratumoral GA treatment
# Method: RNA isolation: RNA was isolated from the tumor as previously described. 22.83Briefly, tumor pieces were stored in RNAlater solution at room temperature for at least one day and then at 4° C. until RNA isolation. Tumor pieces were removed from RNAlater solution and homogenized in 10 mL TRIzol reagent (38% phenol, 0.8 M guanidine thiocyanate, 0.4 M ammonium thiocyanate, 0.1 M sodium acetate, 5% glycerol). Homogenate was divided into 1 mL, 100 μl BCP (Molecular Research Center #BP 151, Cincinnati, OH) was added, shaken vigorously 15 seconds and centrifuged 12,000×g, 10 minutes, 4° C. […] RNA was quantified by Qubit™ using the RNA High Sensitivity Assay Kit (Invitrogen™ #Q32852, Thermo Fisher Scientific Corporation, Eugene, OR) and RNA quality was analyzed using the Agilent 2200 TapeStation (Waldbronn, Germany).
# RNA sequencing: The mRNA library preparation was performed with the NEBNext® Stranded mRNA library kit (New England Biolabs, Inc. #E7760, Ipswich, MA), tagged with a unique dual index sequence, and qPCR quantification of the library pool was performed before sequencing. Sequencing was performed on an Illumina NextSeq2000 P3 with single read 75 bp read lengths (KU Genome Sequencing Core). The reads were aligned with Mus musculus UCSC mm9 reference genome using RNA-Seq Alignment workflow (2.0.2, Illumina, San Diego, CA). […]
substance,measurement,setting,value
Glatiramer acetate [GA],injection site reactions (overall),"[1]; intratumoral/peritumoral injection, patients",Injection site reactions were observed in and around tumor tissues
same,grade 2 or higher adverse events,"[1]; nine patients, Copaxone 40 mg intratumoral",no grade 2 or higher adverse events
same,treatment related adverse events reported (number),"[1]; nine patients, Copaxone 40 mg intratumoral, 1-3 injections",3
same,grade of treatment related adverse events,"[1]; nine patients, Copaxone 40 mg intratumoral, CTCAE v5.0",grade 1
same,Injection Site Reaction,"[1]; patient BCCa-Left Nasal Ala, 2 Copaxone injections",Grade 1-Mild
same,Injection Site Reaction,"[1]; patient BCCa-Left Nasal Ala, 2 Copaxone injections, listed as Copaxone",grade 1 injection site reaction described as pressure and itching
same,Injection Site Reaction,"[1]; patient BCCa-Right Flank, 3 Copaxone injections",1st inj. - Pain
same,Injection Site Reaction,"[1]; patient BCCa-Right Post. Neck, 2 Copaxone injections",Grade 1-Mild
same,Injection Site Reaction,"[1]; patient BCCa-Right Post. Neck, 2 Copaxone injections, listed as Copaxone",grade 1 burning with injection of lidocaine
same,Injection Site Reaction,"[1]; patient Melanoma-Left Scalp, 2 Copaxone injections",None
same,Injection Site Reaction,"[1]; patient Melanoma-Mid Back, 2 Copaxone injections",None
same,Injection Site Reaction,"[1]; patient SCCa-Right Cheek, 1 Copaxone injection",None
same,tolerability of intratumoral injections,[1]; patients,well tolerated
same,gene expression in the tumors,[2],little discernable effect on gene expression
